Reference: patent US20250163057A1, “DCN-1 MODULATING COMPOUNDS AND METHODS OF USE THEREOF” (Cellarity, Inc., priority 2023, published 2025)
Where two headings read alike, the source gives them in different places.

Tests used:
[1] = biological target: T1, DCN1 (DCUND1) protein PONY domain (Homo sapiens (Human), UniProt Q96GG9); experiment: TR-FRET assay, DCN1 binding with FAM-labeled probe
Method in brief: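 Biotinylated DCN1 PONY domain, labeled with streptavidin-Tb, was competed against a FAM-labeled non-covalent DCN1 inhibitor probe in buffer with TritonX and 200 mM NaCl. Conditions were 5 nM DCN1 with 20 nM FAM-probe, or 0.31 nM DCN1 with 100 nM FAM-plus 800 nM unlabeled probe. The TR-FRET ratio was read at 1, 5 and 24 h (0.1% DMSO).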

[2] = biological target: T1, DCN1 (DCUND1) protein PONY domain; experiment: Off-rate measurement of reversible covalent molecules (jump dilution TR-FRET with Cy5 probe); type: binding; conditions: for Category: binding mode category from off-rate assay; for residence time: inverse of rate constant K; for residence time / half-life: jump dilution TR-FRET; for koff: jump dilution, Cy5 covalent probe 150 nM, TR-FRET; for half-life: ln(2)/K
Excerpt: A typical covalent compound is assumed to stay bound to a protein for at least the life of that protein in the cell. In reality, there is a range of how long a covalent compounds remains bound before a reverse reaction takes place. Thus, some covalent bonds can be labeled as reversible as their reverse reaction takes place in a measurable amount of time under physiological conditions. The assay capitalizes on the range of covalent binders by using a high affinity covalent binder as a probe to displace the more reversible binders in an adaptation of the jump dilution method.
In this version of the jump dilution method, the increase in covalent probe binding over time was measured through a TR-FRET reaction between the covalent probe and the biotinylated target protein.
The recombinant form of the DCN1 (DCUND1) protein PONY domain was produced using an E. coli expression system at Viva Biotech (China). The DCN1 protein was biotinylated (EZ sulfo-NHS-LC-biotin; Thermofisher) for labeling with streptavidin terbium (Tb) cryptate in the reaction. This biotinylated protein was used in two forms of the TR-FRET assay as described below.
The off-rate measurement is executed in two steps based on the jump dilution method. […] The greatest dilution allowed within the constraints of the assay was chosen. These factors allow a competitive advantage for the covalent probe to replace the test compound when that compound releases from the target protein. The actual measure is the rate of increased TR-FRET signal as the covalent probe replaces the test compound over time. […] The resulting time dependent curve of the TR-FRET signal is fit to the following equation:
Y=Y0+(Plateau−Y0)*(1−exp(−K*x))
K is the rate constant (1/unit of time). The residence time is defined as the inverse of K, the rate constant. The half-life is calculated as ln(2)/K.

[3] = test system: Cullin-3 (CUL3) neddylation; experiment: AlphaLISA assay for Cullin-3 (CUL3) neddylation in TF 1 cells; type: cell-based; conditions: Homo sapiens, TF-1, 3 h, 3 hours treatment
Method in brief: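 Neddylated CUL3 was quantified by AlphaLISA in lysates of TF 1 cells exposed for 3 h to test compound in IMDM without supplements. Percent inhibition set between vehicle and 1 μM DI-1548 positive control; IC50 derived by Hill-equation fitting of dose-response curves.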

fetal hemoglobin protein = experiment: HbF HPLC Cell Culture Assay; type: cell-based
Description: A Cell Culture Assay was performed to evaluate the ability of compounds to induce fetal hemoglobin in a cell culture. The amount fetal hemoglobin protein induced was measured by HPLC.
Cell culture began on Day −4 (thaw day). Thaw buffer was prepared by sterile filtering 6 mL of Human Serum Albumin and 144 mL of PBS to make sterile 1% I/PBS. Cells were removed from liquid nitrogen storage and mostly thawed in a 37° C. water bath. Once the ice in the cryovials was melted, cells were transferred quickly into a 50 mL conical tube. Cryovial was rinsed once with thaw buffer and buffer was transferred over to the conical tube as well. Next, doubling volumes of thaw buffer was added to the conical and gently swirled for ˜30 seconds to one minute (for example: 2 mL was added and swirled, then 4 mL, then 8 mL, and so on) until the volume in the conical is 32 mL. Cells and buffer were centrifuged at 300G for 8 minutes, and the supernatant was aspirated. Another 32 mL of thaw buffer was added slowly, swirling the tube. The tube was again centrifuged at 300G for 8 minutes and the supernatant was aspirated. Cells were counted by resuspending in 1 mL of expansion media and counting with AOPI to determine the concentration of cells/mL.
On day 2, Passage & Treatment Day, each cell culture well was counted. Next fresh CD34 Expansion Media was made which contained StemSpan SFEM, CC100 and TPO all from StemCell technologies. Appropriate volume of cells was collected, centrifuged at 300 g and resuspended in fresh media. Cells were plated in treatment format at a density of 200,000 cells/ml, 25,000 cells/well. Finally, they were treated with test compounds as well as positive and negative controls.
On Days 0, 3 & 5 the same process was carried out. First, each cell culture well was counted. Next Phase 1 Erythroid Differentiation Media was freshly made, which contained StemSpan SFEM, 2.5 U/ml EPO, 0.5 mg/ml Holo-TF, 1× Glutamax, 5 μl/ml chemically defined lipid mixture, 10 ng/ml insulin, 50 ng/ml SCF, 10 ng/ml IL-3. Appropriate volume of cells was collected, centrifuged at 300 g and resuspended in fresh media. Cells should now be in fresh wells at a density of 100,000 cells/ml. 60,000 cells, 60,000 cells and 100,000 cells for days 0, 3, 5 respectively. Finally, fresh compound was added to each well at each timepoint (Days 0, 3 & 5).
On Day 7 media and cell culture density changes. Each cell culture well was counted. Next, Phase 2 Erythroid Differentiation Media was freshly made, which contains StemSpan SFEM, 2.5 U/ml EPO, 0.5 mg/ml Holo-TF, 1× Glutamax, 5 μl/ml chemically defined lipid mixture, 10 ng/ml insulin, 50 ng/ml SCF. Appropriate volume of cells was collected, centrifuged at 300 g and resuspended in fresh media. Cells were plated in fresh wells at a density of 500,000 cells/ml, 300,000 cells/well. Finally, fresh compound was added to each well at Day 7 timepoint.
On Day 10 media formulation is once again changed. Each cell culture well was counted. Fresh Phase 3 Erythroid Differentiation Media was made which contains StemSpan SFEM, 2.5 U/ml EPO, 0.5 mg/ml Holo-TF, 1× Glutamax, 5 μl/ml chemically defined lipid mixture, 10 ng/ml insulin. Appropriate volume of cells was collected, centrifuged at 300 g and resuspended in fresh media. Cells were plated in fresh wells at a density of 500,000 cells/ml, 500,000 cells/well. Finally, fresh compound was added to each well at Day 10 timepoint.
On Day 12 the cell density is once again changed. Each cell culture well was counted. Fresh Phase 3 Erythroid Differentiation Media was made. Appropriate volume of cells was collected, centrifuged at 300 g and resuspended in fresh media. Cells were plated in fresh wells at a density of 1,000,000 cells/ml, 1,000,000 cells/well. Finally fresh compound was added to each well.
Day 14 (18th day of experiment) refers to the terminal day of culture. Each cell culture well was counted. Next between 150K and 650K cells were placed in a uniquely labeled 1.5 ml standard tube. […]

DCN1 protein = DCN1 protein (Homo sapiens (Human), UniProt Q96GG9); experiment: Intact Protein MS Analysis with the RapidFire-TOF System (covalent adduct formation); type: binding; conditions: MS Emax; 400 nM DCN1, 3 hours at room temperature
DCN1 protein, sequence (Q96GG9 whole entry): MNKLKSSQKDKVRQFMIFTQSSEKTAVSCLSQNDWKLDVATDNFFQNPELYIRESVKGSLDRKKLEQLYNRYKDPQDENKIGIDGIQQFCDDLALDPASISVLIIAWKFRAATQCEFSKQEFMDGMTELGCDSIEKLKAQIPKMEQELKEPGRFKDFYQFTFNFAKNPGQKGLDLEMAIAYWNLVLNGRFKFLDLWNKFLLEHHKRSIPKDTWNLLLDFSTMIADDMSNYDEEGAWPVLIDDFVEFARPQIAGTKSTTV
Method in brief: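 Tag-cleaved human DCN1 (400 nM) expressed in E. coli, in 25 mM Tris-HCl, 200 mM NaCl, 1 mM DTT, was incubated with 11 compound concentrations for 3 h at room temperature and quenched with 0.2% formic acid. Intact-protein Q-TOF MS with deconvolution detected the compound adduct mass.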

[4] = test system: fetal hemoglobin gene HBG1; experiment: HBG1 Nanostring Assay in CD34+ HSPC erythroid differentiation culture; type: cell-based, human; conditions: for EC50: Homo sapiens, 240 h, HBG1 induction, Day10 of erythroid differentiation; for Nanostring Ymax obs (%): relative to a control compound (C1)
Method in brief: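 HBG1 counts came from direct nCounter hybridization (67° C, 22 h) of day-10 lysates, normalized to ERCC positive controls and a housekeeping gene, giving EC50 and Ymax versus a reference compound. Compounds in 0.1% DMSO were present from day −2 while cells underwent EPO/SCF/IL-3 erythroid differentiation, with IL-3 dropped at day 7, at 37° C.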

[5] = 24 hr after treatment with compound, read-out: TR FRET IC50 24 hr
[6] = read-out: TR FRET IC50 1 hr, 1 hr after treatment with compound
[7] = TR FRET IC50 1 hr (nM), 1 hr after treatment with compound

T1 sequence (Q96GG9 60-248): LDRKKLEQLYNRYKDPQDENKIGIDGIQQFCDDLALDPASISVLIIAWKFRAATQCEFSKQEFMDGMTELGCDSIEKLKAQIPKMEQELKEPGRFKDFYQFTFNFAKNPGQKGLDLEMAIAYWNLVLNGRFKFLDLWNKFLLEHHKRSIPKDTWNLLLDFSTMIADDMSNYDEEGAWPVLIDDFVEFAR

| SMILES | IC50 [1, 5] [nM] | IC50 [1, 6] [nM] | Category [2] | residence time [2] [min] | koff [2] [s⁻¹] | half-life [2] [h] | IC50 [3] [nM] | IC50 [1, 7] [nM] | EC50 (fetal hemoglobin protein; 336 h, HbF induction, Day 14 of culture) [nM] | Hemoglobin HPLC Ymax obs (%) (fetal hemoglobin protein; relative to a control compound) | % Adduct Formation (DCN1 protein) | EC50 [4] [nM] | Nanostring Ymax obs (%) [4] |
| --- | --- | --- | --- | --- | --- | --- | --- | --- | --- | --- | --- | --- | --- |
| CCN1C(=O)[C@@H](NC(=O)c2cccc(C(F)(F)F)c2)[C@@H](c2ccc(F)cc2)c2c(C(=O)N3CCS(=O)(=O)C[C@H]3C#N)nn(C3CCOCC3)c21 (mixture of isomers) [Compound I-436] | ≤ 200 | ≤ 200 | reversible covalent | 76.7 | 0.000238 | 0.8857 | ≤ 100 |  |  |  |  |  |  |
| CCN1C(=O)[C@@H](NC(=O)c2cccc(C(F)(F)F)c2)[C@@H](C2CC2)c2c(C(=O)N3CCN(C)C[C@H]3C#N)nn(C3CCOCC3)c21 (single isomer, unassigned) [Compound I-430] | ≤ 200 |  | slow reversible |  |  |  | ≤ 100 | 200 to 1000 |  |  |  |  |  |
| CCN1C(=O)[C@@H](NC(=O)c2cccc(C(F)(F)F)c2)[C@@H](c2ccc(F)cc2)c2c(C(=O)N3CCNC[C@@H]3C#N)nn(-c3ccccc3)c21 [Compound I-281] |  |  |  |  |  |  |  |  | ≤ 50 | ++ (Hemoglobin HPLC Ymax greater than 65.0 and less than or equal to 100.0) |  |  |  |
| CCN1C(=O)[C@@H](NC(=O)c2cccc(C(F)(F)F)c2)[C@@H](C2CC2)c2c(C(=O)N3CCC[C@H]3C#N)nn(C3CCOCC3)c21 [Compound I-348] | ≤ 200 |  | slow reversible |  |  |  | ≤ 100 | 200 to 1000 |  |  | ++ (MS Emax % adduct formation greater than 30.0 and less than or equal to 80.0) |  |  |
| CCN1C(=O)[C@@H](NC(=O)c2cccc(C(F)(F)F)c2)[C@@H](c2ccc(F)cc2)c2c(C(=O)N3CCNC[C@@H]3C#N)nn(C3CCOCC3)c21 [Compound I-364] | ≤ 200 | ≤ 200 |  |  |  |  | ≤ 100 |  |  |  | +++ (MS Emax % adduct formation greater than 80.0 and less than or equal to 100.0) | ≤ 100 | ++ (Nanostring Ymax greater than 50.0 and less than or equal to 100.0) |
| CCN1C(=O)[C@@H](NC(=O)c2cccc(C(F)(F)F)c2)[C@@H](C2CC2)c2c(C(=O)N(C)CC#N)nn(C3CCOCC3)c21 [Compound I-374] | ≤ 200 |  |  |  |  |  | ≤ 100 | 200 to 1000 |  |  | +++ (MS Emax % adduct formation greater than 80.0 and less than or equal to 100.0) | ≤ 100 | +++ (Nanostring Ymax greater than 100.0) |
| CCN1C(=O)[C@@H](NC(=O)c2cccc(C(F)(F)F)c2)[C@@H](C2CC2)c2c(C(=O)N3CC(F)(F)C[C@H]3C#N)nn(C3CCOCC3)c21 [Compound I-378] | ≤ 200 | ≤ 200 |  |  |  |  | ≤ 100 |  |  |  | +++ (MS Emax % adduct formation greater than 80.0 and less than or equal to 100.0) | ≤ 100 | ++ (Nanostring Ymax greater than 50.0 and less than or equal to 100.0) |
| CCN1C(=O)[C@@H](NC(=O)c2cccc(C(F)(F)F)c2)[C@@H](C2CC2)c2c(C(=O)N3CCOC[C@H]3C#N)nn(C3CCOCC3)c21 [Compound I-381] | ≤ 200 | ≤ 200 | reversible covalent | 297 | 5.62e-05 | 3.427 |  |  |  |  | +++ (MS Emax % adduct formation greater than 80.0 and less than or equal to 100.0) |  |  |
| CCN1C(=O)[C@@H](NC(=O)c2cccc(C(F)(F)F)c2)[C@@H](c2ccc(F)cc2)c2c(C(=O)N3CC[C@H]3C#N)nn(C3CCOCC3)c21 [Compound I-384] | ≤ 200 | ≤ 200 | reversible covalent | 184 | 9.21e-05 | 2.122 | ≤ 100 |  |  |  | + (MS Emax % adduct formation greater than or equal to 0.0 and less than or equal to 30.0) |  |  |
| CCN1C(=O)[C@@H](NC(=O)c2cccc(C(F)(F)F)c2)[C@@H](C2CC2)c2c(C(=O)N3CS(=O)(=O)C[C@@H]3C#N)nn(C3CCOCC3)c21 [Compound I-560] | ≤ 200 | ≤ 200 | fast reversible | 44.1 | 0.000378 | 0.509 | ≤ 100 |  |  |  |  |  |  |
| CCN1C(=O)[C@@H](NC(=O)c2cccc(C(F)(F)F)c2)[C@@H](C2CC2)c2c(C(=O)N3CC[C@H]3C#N)nn(C3CCOCC3)c21 [Compound I-660] | ≤ 200 | ≤ 200 | reversible covalent | 266 | 6.28e-05 | 3.07 | ≤ 100 |  |  |  |  |  |  |
